Measurements from patent publication US20100190747A1, “Fused ring compound and use thereof” (priority 2009, published 2010).

Molecular target: T1, delta-5-desaturase (Rattus norvegicus, UniProt Q920R3)
T1 construct: the microsomal fraction of a rat river (10 μl), which had been diluted to 3 mg/ml; from tissue; host or cells: rat liver microsomal fraction
Experiment: Inhibitory activity on delta-5-desaturase (rat liver microsomal fraction, 14C-eicosatrienoic acid, TLC)
Format: biochemical
Settings: test compound at 10 μM, room temperature, 120 minutes
Summary of the method: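 Rat liver microsomes (3 mg/ml before addition) incubated with test compound at 10 μM, NADH, ATP, CoA and 14C-eicosatrienoic acid in phosphate buffer pH 7.4 with BSA and glutathione, 120 min at room temperature. Lipids saponified, extracted, separated by reverse-phase TLC and imaged; % inhibition reported.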

T1 sequence (Q920R3 whole entry): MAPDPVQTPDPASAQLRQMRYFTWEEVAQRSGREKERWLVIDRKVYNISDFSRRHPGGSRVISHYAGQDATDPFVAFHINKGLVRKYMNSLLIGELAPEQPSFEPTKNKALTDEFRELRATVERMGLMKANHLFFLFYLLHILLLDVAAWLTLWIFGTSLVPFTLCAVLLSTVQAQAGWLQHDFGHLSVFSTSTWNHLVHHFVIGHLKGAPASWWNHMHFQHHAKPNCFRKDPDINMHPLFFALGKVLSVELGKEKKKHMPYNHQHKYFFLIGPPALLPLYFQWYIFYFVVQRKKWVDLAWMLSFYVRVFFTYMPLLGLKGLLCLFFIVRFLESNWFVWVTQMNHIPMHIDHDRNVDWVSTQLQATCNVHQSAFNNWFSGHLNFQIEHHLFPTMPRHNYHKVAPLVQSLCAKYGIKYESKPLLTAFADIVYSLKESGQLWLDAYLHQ

Row | inhibition at 10 µM | Inhibitory activity at 10 μM (%) | SMILES
1 | 99% |  | O=c1c2cc[nH]c2nc(OCC(F)(F)F)n1-c1ccc(OCC(F)(F)F)cc1 [Example 227, 2-(2,2,2-Trifluoroethoxy)-3-[4-(2,2,2-trifluoroethoxy)phenyl]-3,7-dihydro-4H-pyrrolo[2,3-d]pyrimidin-4-one]
2 | 101% |  | CCSc1nc2[nH]c(Cl)cc2c(=O)n1-c1ccc(OCC(F)(F)F)cc1 [Example 231, 6-Chloro-2-(ethylsulfanyl)-3-[4-(2,2,2-trifluoroethoxy)phenyl]-3,7-dihydro-4H-pyrrolo[2,3-d]pyrimidin-4-one]
3 | 96% |  | CCSc1nc2[nH]c(Br)cc2c(=O)n1-c1ccc(OCC(F)(F)F)cc1 [Example 232, 6-Bromo-2-(ethylsulfanyl)-3-[4-(2,2,2-trifluoroethoxy)phenyl]-3,7-dihydro-4H-pyrrolo[2,3-d]pyrimidin-4-one]
4 | 98% |  | CSc1nc2[nH]ccc2c(=O)n1-c1ccc(OCC(F)(F)F)c(F)c1 [Example 237, 3-[3-Fluoro-4-(2,2,2-trifluoroethoxy)phenyl]-2-(methylsulfanyl)-3,7-dihydro-4H-pyrrolo[2,3-d]pyrimidin-4-one]
5 | 101% |  | O=c1c2cc[nH]c2nc(OCC(F)(F)C(F)(F)F)n1-c1ccc(OCC(F)(F)F)cc1 [Example 239, 2-(2,2,3,3,3-Pentafluoropropoxy)-3-[4-(2,2,2-trifluoroethoxy)phenyl]-3,7-dihydro-4H-pyrrolo[2,3-d]pyrimidin-4-one]
6 | 101% |  | O=c1c2cc[nH]c2nc(OCC(F)F)n1-c1ccc(OCC(F)(F)F)cc1 [Example 244, 2-(2,2-Difluoroethoxy)-3-[4-(2,2,2-trifluoroethoxy)phenyl]-3,7-dihydro-4H-pyrrolo[2,3-d]pyrimidin-4-one]
7 | 101% |  | O=c1c2cc[nH]c2nc(Oc2ccc(F)cc2)n1-c1ccc(OCC(F)(F)F)cc1 [Example 246, 2-(4-Fluorophenoxy)-3-[4-(2,2,2-trifluoroethoxy)phenyl]-3,7-dihydro-4H-pyrrolo[2,3-d]pyrimidin-4-one]
8 | 103% |  | O=c1c2cc[nH]c2nc(OC2CCC2)n1-c1ccc(OCC(F)(F)F)cc1 [Example 247, 2-(Cyclobutyloxy)-3-[4-(2,2,2-trifluoroethoxy)phenyl]-3,7-dihydro-4H-pyrrolo[2,3-d]pyrimidin-4-one]
9 | 101% |  | CCSc1nc2[nH]ccc2c(=O)n1-c1ccc(OCC(F)F)cc1 [Example 248, 3-[4-(2,2-Difluoroethoxy)phenyl]-2-(ethylsulfanyl)-3,7-dihydro-4H-pyrrolo[2,3-d]pyrimidin-4-one]
10 | 100% |  | CCSc1nc2[nH]ccc2c(=O)n1-c1ccc(OCC(F)(F)C(F)(F)F)cc1 [Example 249, 2-(Ethylsulfanyl)-3-[4-(2,2,3,3,3-pentafluoropropoxy)phenyl]-3,7-dihydro-4H-pyrrolo[2,3-d]pyrimidin-4-one]
11 | 97% |  | CC(C)Sc1nc2[nH]ccc2c(=O)n1-c1ccc(OCC(F)(F)F)cc1 [Example 251, 2-[(1-Methylethyl)sulfanyl]-3-[4-(2,2,2-trifluoroethoxy)phenyl]-3,7-dihydro-4H-pyrrolo[2,3-d]pyrimidin-4-one]
12 | 96% |  | CCCCSc1nc2[nH]ccc2c(=O)n1-c1ccc(OCC(F)(F)F)cc1 [Example 252, 2-(Butylsulfanyl)-3-[4-(2,2,2-trifluoroethoxy)phenyl]-3,7-dihydro-4H-pyrrolo[2,3-d]pyrimidin-4-one]
13 | 98% |  | O=c1c2cc[nH]c2nc(SC(F)(F)F)n1-c1ccc(OCC(F)(F)F)cc1 [Example 253, 3-[4-(2,2,2-Trifluoroethoxy)phenyl]-2-[(trifluoromethyl)sulfanyl]-3,7-dihydro-4H-pyrrolo[2,3-d]pyrimidin-4-one]
14 | 98% |  | CCSc1nc2[nH]ccc2c(=O)n1-c1ccc(OC(F)(F)F)cc1 [Example 254, 2-(Ethylsulfanyl)-3-[4-(trifluoromethoxy)phenyl]-3,7-dihydro-4H-pyrrolo[2,3-d]pyrimidin-4-one]
15 | 101% |  | O=c1c2cc[nH]c2nc(SCC2CC2)n1-c1ccc(OCC(F)(F)F)cc1 [Example 255, 2-[(Cyclopropylmethyl)sulfanyl]-3-[4-(2,2,2-trifluoroethoxy)phenyl]-3,7-dihydro-4H-pyrrolo[2,3-d]pyrimidin-4-one]
16 | 104% |  | O=c1c2cc[nH]c2nc(SC2CC2)n1-c1ccc(OCC(F)(F)F)cc1 [Example 256, 2-(Cyclopropylsulfanyl)-3-[4-(2,2,2-trifluoroethoxy)phenyl]-3,7-dihydro-4H-pyrrolo[2,3-d]pyrimidin-4-one]
17 | 101% |  | O=c1c2cc[nH]c2nc(OCC(F)(F)F)n1-c1ccc(OCC(F)(F)F)c(F)c1 [Example 264, 3-[3-Fluoro-4-(2,2,2-trifluoroethoxy)phenyl]-2-(2,2,2-trifluoroethoxy)-3,7-dihydro-4H-pyrrolo[2,3-d]pyrimidin-4-one]

Row | inhibition at 10 µM | Inhibitory activity at 10 μM (%) | SMILES
18 | 98% |  | CCSc1nc2c(c(=O)n1-c1ccc(OCC(F)(F)F)cc1)CC(=O)N2 [Example 265, 2-(Ethylsulfanyl)-3-[4-(2,2,2-trifluoroethoxy)phenyl]-5,7-dihydro-3H-pyrrolo[2,3-d]pyrimidine-4,6-dione]
19 | 100% |  | CSc1nc2c(c(=O)n1-c1ccc(OCC(F)(F)F)cc1)CC(=O)N2 [Example 267, 2-(Methylsulfanyl)-3-[4-(2,2,2-trifluoroethoxy)phenyl]-5,7-dihydro-3H-pyrrolo[2,3-d]pyrimidine-4,6-dione]
20 | 99% |  | CCSc1nc2c(c(=O)n1-c1ccc(OCC(F)(F)C(F)(F)F)cc1)CC(=O)N2 [Example 269, 2-(Ethylsulfanyl)-3-[4-(2,2,3,3,3-pentafluoropropoxy)phenyl]-5,7-dihydro-3H-pyrrolo[2,3-d]pyrimidine-4,6-dione]
21 | 99% |  | CCSc1nc2c(c(=O)n1-c1ccc(OCC(F)F)cc1)CC(=O)N2 [Example 270, 3-[4-(2,2-Difluoroethoxy)phenyl]-2-(ethylsulfanyl)-5,7-dihydro-3H-pyrrolo[2,3-d]pyrimidine-4,6-dione]
22 | 99% |  | O=C1Cc2c(nc(OCC(F)F)n(-c3ccc(OCC(F)(F)F)cc3)c2=O)N1 [Example 275, 2-(2,2-Difluoroethoxy)-3-[4-(2,2,2-trifluoroethoxy)phenyl]-5,7-dihydro-3H-pyrrolo[2,3-d]pyrimidine-4,6-dione]
23 | 94% |  | CCOc1nc2c(c(=O)n1-c1ccc(OCC(F)(F)C(F)(F)F)cc1)CC(=O)N2 [Example 277, 2-Ethoxy-3-[4-(2,2,3,3,3-pentafluoropropoxy)phenyl]-5,7-dihydro-3H-pyrrolo[2,3-d]pyrimidine-4,6-dione]
24 |  | 101% | O=c1c2cc[nH]c2nc(OC2CCC2)n1-c1ccc(OCC(F)(F)F)cc1 [Example 283, 2-(Cyclobutyloxy)-3-[4-(2,2,2-trifluoroethoxy)phenyl]-3,7-dihydro-4H-pyrrolo[2,3-d]pyrimidin-4-one]
25 | 96% |  | CC(C)Sc1nc2c(c(=O)n1-c1ccc(OCC(F)(F)F)cc1)CC(=O)N2 [Example 285, 2-[(1-Methylethyl)sulfanyl]-3-[4-(2,2,2-trifluoroethoxy)phenyl]-5,7-dihydro-3H-pyrrolo[2,3-d]pyrimidine-4,6-dione]
26 | 102% |  | CCCSc1nc2c(c(=O)n1-c1ccc(OCC(F)(F)F)cc1)CC(=O)N2 [Example 286, 2-(Propylsulfanyl)-3-[4-(2,2,2-trifluoroethoxy)phenyl]-5,7-dihydro-3H-pyrrolo[2,3-d]pyrimidine-4,6-dione]
27 |  | 101% | O=c1c2cc[nH]c2nc(OCC2CC2)n1-c1ccc(OCC(F)(F)F)cc1 [Example 289, 2-(Cyclopropylmethoxy)-3-[4-(2,2,2-trifluoroethoxy)phenyl]-3,7-dihydro-4H-pyrrolo[2,3-d]pyrimidin-4-one]
28 | 99% |  | O=C1Cc2c(nc(SC3CC3)n(-c3ccc(OCC(F)(F)F)cc3)c2=O)N1 [Example 291, 2-(Cyclopropylsulfanyl)-3-[4-(2,2,2-trifluoroethoxy)phenyl]-5,7-dihydro-3H-pyrrolo[2,3-d]pyrimidine-4,6-dione]
29 | 101% |  | O=C1Cc2c(nc(SCC3CCC3)n(-c3ccc(OCC(F)(F)F)cc3)c2=O)N1 [Example 296, 2-[(Cyclobutylmethyl)sulfanyl]-3-[4-(2,2,2-trifluoroethoxy)phenyl]-5,7-dihydro-3H-pyrrolo[2,3-d]pyrimidine-4,6-dione]
30 | 101% |  | O=C1Cc2c(nc(SCC(F)(F)F)n(-c3ccc(OCC(F)(F)F)cc3)c2=O)N1 [Example 298, 3-[4-(2,2,2-Trifluoroethoxy)phenyl]-2-[(2,2,2-trifluoroethyl)sulfanyl]-5,7-dihydro-3H-pyrrolo[2,3-d]pyrimidine-4,6-dione]
31 | 100% |  | COCCOCCCSc1nc2c(c(=O)n1-c1ccc(OCC(F)(F)F)cc1)CC(=O)N2 [Example 299, 2-{[3-(2-Methoxyethoxy)propyl]sulfanyl}-3-[4-(2,2,2-trifluoroethoxy)phenyl]-5,7-dihydro-3H-pyrrolo[2,3-d]pyrimidine-4,6-dione]
32 | 101% |  | CCSc1nc2c(c(=O)n1-c1ccc(OCC3CC3)cc1)CC(=O)N2 [Example 300, 3-[4-(Cyclopropylmethoxy)phenyl]-2-(ethylsulfanyl)-5,7-dihydro-3H-pyrrolo[2,3-d]pyrimidine-4,6-dione]
33 | 99% |  | CS(=O)(=O)CCCSc1nc2c(c(=O)n1-c1ccc(OCC3CC3)cc1)CC(=O)N2 [Example 301, 3-[4-(Cyclopropylmethoxy)phenyl]-2-{[3-(methylsulfonyl)propyl]sulfanyl}-5,7-dihydro-3H-pyrrolo[2,3-d]pyrimidine-4,6-dione]

Row | SMILES | inhibition at 10 µM | Inhibitory activity at 10 μM (%)
34 | CCCCOc1nc2[nH]ccc2c(=O)n1-c1ccc(OCC(F)(F)F)cc1 [Example 287, 2-Butoxy-3-[4-(2,2,2-trifluoroethoxy)phenyl]-3,7-dihydro-4H-pyrrolo[2,3-d]pyrimidin-4-one] |  | 98%
